ChEMBL document CHEMBL5653599, “AZD1152, a novel and selective aurora B kinase inhibitor, induces growth arrest, apoptosis, and sensitization for tubulin depolymerizing agent or topoisomerase II inhibitor in human acute leukemia cells in vitro and in vivo” (Blood, 2007)
pIC50: −log10 of the molar value. Activity calls are given as the source filed them. The rule behind the calls is not given here.

Tests used:
[1] = biological target: Aurora kinase B (Homo sapiens) (UniProt Q96GD4); assay: Inhibition of Aurora B in human MOLM-13 cells assessed as decrease in histone H3 phosphorylation at Ser10 at 10 nM incubated for 24 hrs by flow cytometry (reference value: 43 %); type: cell-based; design: scale not given: the % may be the effect or the level left
Chain of Aurora kinase B (Homo sapiens) (Q96GD4 whole entry): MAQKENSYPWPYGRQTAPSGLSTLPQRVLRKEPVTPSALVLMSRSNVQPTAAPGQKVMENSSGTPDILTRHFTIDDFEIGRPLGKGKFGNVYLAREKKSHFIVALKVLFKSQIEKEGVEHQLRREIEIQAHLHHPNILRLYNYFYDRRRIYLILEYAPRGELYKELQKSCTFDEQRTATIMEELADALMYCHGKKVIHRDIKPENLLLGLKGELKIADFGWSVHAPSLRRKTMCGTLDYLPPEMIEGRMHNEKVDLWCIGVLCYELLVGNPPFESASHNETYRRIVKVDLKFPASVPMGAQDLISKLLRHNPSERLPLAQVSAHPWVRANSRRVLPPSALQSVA

[2] = biological target: Aurora kinase B (Homo sapiens) (UniProt Q96GD4); assay: Inhibition of Aurora B in human MV4-11 cells assessed as decrease in histone H3 phosphorylation at Ser10 at 10 nM incubated for 24 hrs by flow cytometry (reference value: 52 %); type: cell-based; design: scale not given: the % may be the effect or the level left
[3] = tested on: MOLM-13; assay: Antitumor activity against human MOLM-13 cells xenografted in immunodeficient nude BALB/c mouse model assessed as suppression of tumor growth at 25 mg/kg, ip administered 4 times a week for 2 weeks measured twice per week; type: functional, organism-based
[4] = tested on: MOLM-13; assay: Antitumor activity against human MOLM-13 cells xenografted in immunodeficient nude BALB/c mouse model assessed as suppression of tumor weight at 25 mg/kg, ip administered 4 times a week for 2 weeks measured twice per week; type: functional, organism-based
[5] = tested on: MOLM-13; assay: Antitumor activity against human MOLM-13 cells xenografted in immunodeficient nude BALB/c mouse model assessed as decrease in tumor volume at 25 mg/kg, ip administered 4 times a week for 2 weeks measured twice per week (reference value: 1261 +/- 200 mm3); type: functional
[6] = tested on: MOLM-13; assay: Antitumor activity against human MOLM-13 cells xenografted in immunodeficient nude BALB/c mouse model assessed as decrease in tumor weight at 25 mg/kg, ip administered 4 times a week for 2 weeks measured twice per week (reference value: 583 +/- 150 mg); type: functional
[7] = tested on: MOLM-13; assay: Antitumor activity against human MOLM-13 cells xenografted in immunodeficient nude BALB/c mouse model assessed as necrotic tissue with infiltration of phagocytic cells at 25 mg/kg, ip administered 4 times a week for 2 weeks by H and E staining based analysis; type: functional, organism-based
[8] = tested on: MOLM-13; assay: Antitumor activity against human MOLM-13 cells xenografted in immunodeficient nude BALB/c mouse model assessed as absence of leukemia cells at 25 mg/kg, ip administered 4 times a week for 2 weeks by H and E staining based analysis; type: functional, organism-based
[9] = tested on: MOLM-13; assay: In vivo antiproliferative activity against human MOLM-13 cells xenografted in immunodeficient nude BALB/c mouse model assessed as inhibition of cell proliferation at 5 mg/kg, ip administered 4 times a week for 2 weeks relative to control; type: functional; conditions: MOLM-13, 336 h
[10] = tested on: MOLM-13; assay: Antitumor activity against human MOLM-13 cells xenografted in immunodeficient nude BALB/c mouse model assessed as reduction in tumor weight at 5 mg/kg, ip administered 4 times a week for 2 weeks in presence of vincristine; type: functional, organism-based
[11] = tested on: MOLM-13; assay: Antitumor activity against human MOLM-13 cells xenografted in immunodeficient nude BALB/c mouse model assessed as tumor growth inhibition at 5 mg/kg, ip administered 4 times a week for 2 weeks in presence of vincristine relative to control; type: functional; conditions: MOLM-13, 336 h
[12] = tested on: MOLM-13; assay: Antitumor activity against human MOLM-13 cells xenografted in immunodeficient nude BALB/c mouse model assessed as reduction in tumor growth at 5 mg/kg, ip administered 4 times a week for 2 weeks in presence of daunorubicin; type: functional, organism-based
[13] = Toxicity in immunodeficient nude BALB/c mouse model xenografted with human MOLM-13 cells assessed as signs of body wasting at 25 mg/kg, ip administered 4 times a week for 2 weeks measured twice per week; type: organism-based; conditions: in vivo, 336 h
[14] = Toxicity in immunodeficient nude BALB/c mouse model xenografted with human MOLM-13 cells assessed as signs of toxicity at 25 mg/kg, ip administered 4 times a week for 2 weeks measured twice per week; type: organism-based; conditions: in vivo, 336 h
[15] = Toxicity in immunodeficient nude BALB/c mouse model xenografted with human MOLM-13 cells assessed as signs of body wasting at 5 mg/kg, ip administered 4 times a week for 2 weeks in presence of vincristine; type: organism-based; conditions: in vivo, 336 h
[16] = Toxicity in immunodeficient nude BALB/c mouse model xenografted with human MOLM-13 cells at 1 mg/kg, ip administered 6 times in 2 weeks; type: organism-based; conditions: in vivo, 336 h
[17] = Inhibition of cell proliferation of human PALL-2 cells incubated for 48 hrs by 3H-thymidine uptake assay; type: functional, cell-based
[18] = tested on: MOLM-13; assay: Inhibition of cell proliferation of human MOLM-13 cells incubated for 48 hrs by 3H-thymidine uptake assay; type: functional, cell-based
[19] = tested on: MV4-11; assay: Inhibition of cell proliferation of human MV4-11 cells incubated for 48 hrs by 3H-thymidine uptake assay; type: functional, cell-based
[20] = tested on: MOLM-13; assay: Inhibition of clonogenic growth in human MOLM-13 cells incubated for 10 days; type: functional, cell-based; conditions: MOLM-13, 240 h
[21] = tested on: MV4-11; assay: Inhibition of clonogenic growth in human MV4-11 cells incubated for 10 days; type: functional, cell-based; conditions: MV4-11, 240 h
[22] = tested on: MOLM-13; assay: Induction of apoptosis in human MOLM-13 cells assessed as early apoptotic cells at 1 nM incubated for 24 hrs by annexin V/PI staining based flow cytometry (reference value: 2.4 %); type: functional
[23] = tested on: MOLM-13; assay: Induction of apoptosis in human MOLM-13 cells assessed as early apoptotic cells at 3 nM incubated for 24 hrs by annexin V/PI staining based flow cytometry (reference value: 2.4 %); type: functional
[24] = tested on: MOLM-13; assay: Induction of apoptosis in human MOLM-13 cells assessed as early apoptotic cells at 10 nM incubated for 24 hrs by annexin V/PI staining based flow cytometry (reference value: 2.4 %); type: functional
[25] = tested on: MOLM-13; assay: Induction of apoptosis in human MOLM-13 cells assessed as late apoptotic cells at 1 nM incubated for 24 hrs by annexin V/PI staining based flow cytometry (reference value: 2.2 %); type: functional
[26] = tested on: MOLM-13; assay: Induction of apoptosis in human MOLM-13 cells assessed as late apoptotic cells at 3 nM incubated for 24 hrs by annexin V/PI staining based flow cytometry (reference value: 2.2 %); type: functional
[27] = tested on: MOLM-13; assay: Induction of apoptosis in human MOLM-13 cells assessed as late apoptotic cells at 10 nM incubated for 24 hrs by annexin V/PI staining based flow cytometry (reference value: 2.2 %); type: functional
[28] = tested on: MOLM-13; assay: Induction of apoptosis in human MOLM-13 cells assessed as early apoptotic cells at 1 nM incubated for 48 hrs by annexin V/PI staining based flow cytometry (reference value: 3.2 %); type: functional
[29] = tested on: MOLM-13; assay: Induction of apoptosis in human MOLM-13 cells assessed as early apoptotic cells at 3 nM incubated for 48 hrs by annexin V/PI staining based flow cytometry (reference value: 3.2 %); type: functional
[30] = tested on: MOLM-13; assay: Induction of apoptosis in human MOLM-13 cells assessed as early apoptotic cells at 10 nM incubated for 48 hrs by annexin V/PI staining based flow cytometry (reference value: 3.2 %); type: functional
[31] = tested on: MOLM-13; assay: Induction of apoptosis in human MOLM-13 cells assessed as late apoptotic cells at 1 nM incubated for 48 hrs by annexin V/PI staining based flow cytometry (reference value: 1.9 %); type: functional
[32] = tested on: MOLM-13; assay: Induction of apoptosis in human MOLM-13 cells assessed as late apoptotic cells at 3 nM incubated for 48 hrs by annexin V/PI staining based flow cytometry (reference value: 1.9 %); type: functional
[33] = tested on: MOLM-13; assay: Induction of apoptosis in human MOLM-13 cells assessed as late apoptotic cells at 10 nM incubated for 48 hrs by annexin V/PI staining based flow cytometry (reference value: 1.9 %); type: functional
[34] = Antiproliferative activity against human PALL-2 cells assessed as inhibition of cell proliferation at 3 nM by 3H-thymidine incorporation assay relative to control; type: functional
[35] = Synergistic antiproliferative activity against human PALL-2 cells assessed as inhibition of cell proliferation at 0.3 to 3 nM in presence of vincristine by 3H-thymidine incorporation assay relative to control; type: functional; conditions: dose 0.3-3 nM
[36] = tested on: PALL-2; assay: Induction of apoptosis in human PALL-2 cells assessed as increase in cleaved PARP level at 1 to 3 nM in presence of vincristine by immunoblot analysis; type: functional, cell-based; conditions: dose 1-3 nM
[37] = tested on: MOLM-13; assay: Induction of apoptosis in human MOLM-13 cells assessed as increase in cleaved PARP level at 1 to 3 nM in presence of vincristine by immunoblot analysis; type: functional, cell-based; conditions: dose 1-3 nM
[38] = tested on: MOLM-13; assay: Induction of apoptosis in human MOLM-13 cells assessed as increase in cleaved PARP level at 3 to 10 nM in presence of daunorubicin by immunoblot analysis; type: functional, cell-based; conditions: dose 3-10 nM
[39] = biological target: Aurora kinase B (Homo sapiens) (UniProt Q96GD4); conditions: MOLM-13, dose <= 10.0 nM, time 24-48 hrs
Description: Inhibition of Aurora B in human MOLM-13 cells assessed as increase in 4N/8N DNA content measured for 24 to 48 hrs by FACS analysis

[40] = biological target: Aurora kinase B (Homo sapiens) (UniProt Q96GD4); conditions: MOLM-13, dose <= 10.0 nM, time 24-48 hrs; remark: listed apart in the source
Description: Inhibition of Aurora B in human MOLM-13 cells assessed as increase in 4N/8N DNA content upto 10 nM by FACS analysis

[41] = biological target: Aurora kinase B (Homo sapiens) (UniProt Q96GD4); conditions: PALL-2, dose <= 10.0 nM, time 24-48 hrs
Description: Inhibition of Aurora B in human PALL-2 cells assessed as increase in 4N/8N DNA content measured for 24 to 48 hrs by FACS analysis

[42] = biological target: Aurora kinase B (Homo sapiens) (UniProt Q96GD4); conditions: PALL-2, dose <= 10.0 nM, time 24-48 hrs; remark: listed apart in the source
Description: Inhibition of Aurora B in human PALL-2 cells assessed as increase in 4N/8N DNA content upto 10 nM by FACS analysis

[43] = tested on: MOLM-13; conditions: Homo sapiens, dose 1-10 nM
[44] = tested on: MOLM-13; conditions: Homo sapiens, dose 1.0 nM
[45] = Antiproliferative activity against human PALL-2 cells assessed as inhibition of cell proliferation at 0.3 uM by 3H-thymidine incorporation assay relative to control; type: functional
[46] = tested on: PALL-2; assay: Induction of apoptosis in human PALL-2 cells assessed as increase in cleaved PARP level by immunoblot analysis; type: functional, cell-based; conditions: dose 0.1-1 µM
[47] = tested on: MOLM-13; assay: Induction of apoptosis in human MOLM-13 cells assessed as increase in cleaved PARP level by immunoblot analysis; type: functional, cell-based; conditions: dose 0.1-1 µM
[48] = tested on: MOLM-13; assay: In vivo antiproliferative activity against human MOLM-13 cells xenografted in immunodeficient nude BALB/c mouse model assessed as inhibition of cell proliferation at 0.2 mg/kg, ip administered for 2 weeks on every another day for first week relative to control; type: functional; conditions: MOLM-13, 336 h

For `CCN(CCCOc1ccc2c(Nc3cc(CC(=O)Nc4cccc(F)c4)[nH]n3)ncnc2c1)CCOP(=O)(O)O` [BARASERTIB], the Activity [1] was 25%, the Activity [2] was 19% and the Activity [3] was “Active”. For the same molecule, the Activity [4] was “Active”, the Activity [5] was 71 mm3 and the Activity [6] was 78 mg. For the same molecule, the Activity [7] was “Active”, the Activity [8] was “Active” and the inhibition in vivo at 5 mg/kg [9] was ~50%. The Activity [10] was “Active”, the inhibition in vivo at 5 mg/kg [11] was ~100% and the Activity [12] was “Active”.

With `CCN(CCCOc1ccc2c(Nc3cc(CC(=O)Nc4cccc(F)c4)n[nH]3)ncnc2c1)CCOP(=O)(O)O` [BARASERTIB] the Activity [13] was “Non-Toxic”, the Activity [14] was “Non-Toxic” and the Activity [15] was “Non-Toxic”.

For `COc1cccc2c1C(=O)c1c(O)c3c(c(O)c1C2=O)C[C@@](O)(C(C)=O)C[C@@H]3O[C@H]1C[C@H](N)[C@H](O)[C@H](C)O1` [DAUNORUBICIN], the Activity [16] was “Toxic”.

For `CCN(CCO)CCCOc1ccc2c(Nc3cc(CC(=O)Nc4cccc(F)c4)[nH]n3)ncnc2c1` [DEFOSBARASERTIB], the pIC50 [17] was 8.30, the pIC50 [18] was 7.92 and the pIC50 [19] was 8.10. The pIC50 [20] was 9.00, the pIC50 [21] was 8.55 and the Activity [22] was 3.1%. The Activity [23] was 3.4%, the Activity [24] was 6.5% and the Activity [25] was 4.3%. For the same molecule, the Activity [26] was 3.8%, the Activity [27] was 7.1% and the Activity [28] was 1.9%. For the same molecule, the Activity [29] was 2.2%, the Activity [30] was 36% and the Activity [31] was 3.8%. It also gave an Activity [32] of 3.5%, an Activity [33] of 15% and an inhibition at 0.003 µM [34] of ~35%. The “inhibition (INH)” value [35] was ~80%, the Activity [36] was “Active” and the Activity [37] was “Active”. For the same molecule, the Activity [38] was “Active”, the inhibition [39] was “Dose-Dependent Effect” and the inhibition [40] was “Tde”. The inhibition [41] was “Dose-Dependent Effect”, the inhibition [42] was “Tde” and the inhibition [43] was “Active”. The inhibition [44] was “Active”.

For `CC[C@]1(O)C[C@H]2CN(CCc3c([nH]c4ccccc34)[C@@](C(=O)OC)(c3cc4c(cc3OC)N(C=O)[C@H]3[C@@](O)(C(=O)OC)[C@H](OC(C)=O)[C@]5(CC)C=CCN6CC[C@]43[C@@H]65)C2)C1` [VINCRISTINE], the inhibition at 0.3 µM [45] was ~35%, the Activity [46] was “Dose-Dependent Effect” and the Activity [47] was “Dose-Dependent Effect”. For the same molecule, the inhibition in vivo at 0.2 mg/kg [48] was ~50%.
